Test results taken from patent publication US20240382461A1, “PHARMACEUTICAL COMPOSITION AND METHOD FOR PREVENTION AND TREATMENT OF HEARING LOSS” (PHARMAZZ, INC., priority 2023, published 2024).
“Also recorded” adds a separate entry of the source. Numbered stars: 1 amine (or outer) side, 2 acyl side, 3 side chain; on linkers, the order of the positions; unused ones are H or OH. Ends that are not written are not given here. Suc = O=C(CCC(=O)[*:2])[*:1]

Tests used:
[1] = system: ETB receptors; test: Ki of sovateltide for ETB receptors (literature); format: binding; conditions: ratio of Ki values
[2] = system: adult mouse cochlear cells; test: Cultured adult mouse cochlear cells, JC 1 dye mitochondrial membrane potential, confocal imaging; format: cell-based; conditions: 1 ng/ml for 7 days
Procedure: Inner ears comprising cochlear neuroepithelium from adult mice were dissected after anesthetizing with urethane 1.5 g/kg body weight and euthanizing with cervical dislocation. Inner ears were placed in cold saline, and the cochlea was dissected under the dissection microscope. The isolated cochlea was placed in a cold saline solution and chopped finely in a sterile condition inside a culture hood. Minced tissues were transferred to a 15 ml falcon tube and centrifuged at 1000 RPM for 2 min. The supernatant was discarded, and the pellet was submersed in 1× Trypsin EDTA solution (Cat No. R-001-100, GIBCO, MA) and triturated using a 1 ml pipette and cut-tip. The triturated tissue was incubated at 37° C. for 20 min. After 20 min, the digested tissues were vortexed gently and checked for proper digestion of the tissues. The digestion step was repeated by adding the same volume of 1× trypsin EDTA solution and incubating for 10 minutes. After a satisfactory level of digestion, the tissue solution was filtered with a sieve of pore size 40 μm to isolate cell suspension and remove undigested tissues. The cell suspension was collected in a 15 ml falcon tube, and 1 ml of serum-containing cell culture media was added and mixed properly to stop further digestion. The cochlear cell solution was centrifuged at 2000 RPM for 3 min at RT. The cell pellet was resuspended in 8 ml of 10% fetal bovine serum containing culture media and plated in 60 mm tissue culture-treated plastic plates (Alkali Scientific Inc. Fort Lauderdale, FL). The Neurobasal culture media supplemented with B-27 (Gibco, Waltham, MA) was used for culturing cochlear cells. […]
Sovateltide treatment—The cultured mouse cochlear cells were treated with 1 ng/ml sovateltide for 7 days in 2 different conditions—1) Serum-free media and 2) Serum containing media. […] Fluorescence confocal microscopy imaging was done on live cells. […]
JC-1 is a novel cationic carbocyanine dye that accumulates in mitochondria. The dye exists as a monomer at low concentrations and yields green fluorescence, similar to fluorescein. […]

[3] = system: aminoglycoside-induced hearing loss; test: Kanamycin/furosemide (aminoglycoside)-induced hearing loss in mice, intra-tympanic injection, ABR; format: in vivo, mouse; conditions: after kanamycin/furosemide (K/F) exposure; 5 and 15 ug/kg intra-tympanic; 8, 16 and 32 kHz
Text: (§1) The study aimed to determine whether Sovateltide (IRL-1620, PMZ-1620); an endothelin-B receptor agonist has otoprotective efficacy and that Sovateltide can ameliorate noise- or aminoglycoside-induced hearing loss in a mouse model system. Animals received either unilateral intra-tympanic Sovateltide at one of two dose concentrations or vehicle control injection. The study conducted unilateral auditory brainstem response (ABR) hearing tests at baseline and again at least 14 days after noise or aminoglycoside exposure as the primary measurement. A gross anatomical examination of treated middle ears was also conducted at necropsy.
(§2) FIG. 4 describes the study design where male and female mice were divided into seven groups, each with ten mice. Groups 1-3 were treated with 112-decibel noise to induce cochlear trauma, whereas groups 4-6 were treated with kanamycin+frusomide to induce aminoglycoside-induced cochlear trauma, and group 7 was kept as the control. In addition, Sovateltide in two different doses was administered in groups 1, 2, 4, and 5, while the vehicle, phosphate-buffered saline, was administered in groups 3, 6, and 7. The auditory brainstem response (ABR) test was performed at baseline and day 14 after noise or aminoglycoside exposure.
[Male & female C57Bl/6 mice used in this study were obtained from Charles River Labs. […]

[4] = molecular target: T1, ETA receptors (Sus scrofa, UniProt Q29010); conditions: cited from earlier work
T1 sequence (Q29010 21-427): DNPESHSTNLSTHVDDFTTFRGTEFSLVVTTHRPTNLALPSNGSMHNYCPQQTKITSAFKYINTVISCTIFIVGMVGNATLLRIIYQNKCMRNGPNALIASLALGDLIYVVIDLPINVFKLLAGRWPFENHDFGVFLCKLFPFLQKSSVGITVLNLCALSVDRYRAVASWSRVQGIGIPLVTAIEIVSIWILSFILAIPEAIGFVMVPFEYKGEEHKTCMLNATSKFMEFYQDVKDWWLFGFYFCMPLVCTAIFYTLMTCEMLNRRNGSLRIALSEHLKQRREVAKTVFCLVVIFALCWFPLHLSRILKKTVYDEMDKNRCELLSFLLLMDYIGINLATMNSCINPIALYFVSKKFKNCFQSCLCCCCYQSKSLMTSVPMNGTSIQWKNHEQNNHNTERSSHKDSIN

[5] = system: noise-induced hearing loss; test: Noise-induced hearing loss in mice, intra-tympanic injection, auditory brainstem response (ABR); format: in vivo, mouse; conditions: after noise exposure
Text: as §1, §2
[Male & female C57Bl/6 mice used in this study were obtained from Charles River Labs. All study animals (n=69) underwent anesthesia via 87.5 mg/kg (Ketamine)/12.5 mg/kg (Xylazine) IP injection and baseline unilateral left ear ABR testing at 8, 16, and 32 kHz.
Study animals in Groups 1-6 (n=59) underwent cochlear trauma, either via noise (112 dB SPL, 8-16 kHz band, 2-hr duration) exposure while awake, with the goal of producing a moderate chronic hearing loss in all animals or a single injection of subcutaneous kanamycin and intraperitoneal furosemide on Day 0. The noise treatment typically produced moderate hearing losses in the range of 20-50 dB and scattered losses of outer hair cells but little, if any, loss of inner hair cells. […]

[6] = molecular target: ETB receptors; conditions: cited from earlier work
[7] = system: ETB and vascular endothelial growth factor (VEGF) in the cerebrovasculature; conditions: administration on post-natal day 21; rat brain; cited from earlier work

With “synthetic analog of ET-1, ETB receptor agonist; Suc-Asp-Glu-Glu-Ala-Val-Tyr-Phe-Ala-His-Leu-Asp-Ile-Ile-Trp; CAS #142569-99-1 (Suc-DEEAVYFAHLDIIW) [Sovateltide, N-Succinyl-[Glu9, Ala11,15] endothelin 1]” the “selectivity for ETB over ETA receptors” value [1] was ~120,000 times, the “mitochondrial protection (JC 1 mitochondrial membrane potential) versus saline control” value ([2]; serum containing media) was “reduction in compromised mitochondrial protection” and the “mitochondrial protection (JC 1 mitochondrial membrane potential) versus saline control” value ([2]; serum-free media) was “more mitochondrial protection than control”. For the same substance, the “mitochondrial protection (JC 1 mitochondrial membrane potential) versus saline control” value ([2]; serum-free media, listed as sovateltide) was “notable improvement in mitochondrial protection and improved cellular viability”, the “ABR threshold shift from baseline to Day 14 versus vehicle” value [3] was “not significantly different; also recorded: did not produce statistically reliable differences; also recorded: did not have any discernible impact” and the Ki [4] was 1900 nM. The “ABR threshold shift at 8 kHz versus vehicle” value ([5]; 5 ug/kg intra-tympanic, p=0.2513) was “trend of lower threshold shift”, the “ABR threshold shift at 8 kHz versus vehicle” value ([5]; 15 ug/kg intra-tympanic, p=0.0834) was “trend of lower threshold shift; also recorded: nearly significant effect” and the “ABR threshold shift from baseline to Day 14 versus vehicle” value ([5]; 5 and 15 ug/kg intra-tympanic, 8, 16 and 32 kHz) was “not significantly different; also recorded: did not produce statistically reliable differences”. The Ki [6] was 0.016 nM and the “ETB and VEGF expression in the cerebrovasculature” value [7] was “significant increase”.
